Experimental data published in paper PMC6737244, “Cathelicidin Peptides Restrict Bacterial Growth via Membrane Perturbation and Induction of Reactive Oxygen Species” (mBio, 2019).
Ends that are not written are not given here.

How the values were obtained:
E. coli UTI89 = assay: Differential gene expression after peptide exposure; assay type: cell-based, Escherichia coli; conditions: 30 nM, 5-min exposure
Method: To determine the mechanism by which sublethal concentrations of cathelicidins affect bacterial cell physiology, we sought to analyze gene expression prior to and after a 5-min exposure to 30 nM B22a. The chromosomal integron of V. cholerae contains hundreds of repeats and horizontally acquired genes of unknown function ([20][–][23]). Moreover, many of these genes are duplicated, which can further complicate interpreting gene expression patterns. We elected to examine peptide-induced expression changes in E. coli to simplify gene identification and assignment of potential functions. Significant changes in expression were identified for genes whose products participate in global processes such as protein synthesis, protein folding, protein secretion, intracellular pH, membrane modification, c-di-GMP production, peptidoglycan biosynthesis, respiration, and detoxification of reactive oxygen species (ROS) (Table 2). Perturbation of peptidoglycan synthesis was consistent with the membrane blebbing we observed following B22 and B22a treatment. Other notable changes included arnF, the product of which modifies the lipid A moiety of lipopolysaccharide (LPS) with 4-amino-4-deoxy-L-arabinose (L-Ara4N) to confer resistance to polymyxin and cationic antimicrobial peptides in E. coli and Salmonella enterica serotype Typhimurium ([24], [25]). c-di-GMP-dependent Psl exopolysaccharide production is part of the first line of defense against reactive oxygen species in P. aeruginosa ([26]). The respiratory chain is a major source of periplasmic ROS such as superoxide (O2^−) and hydrogen peroxide (H2O2) ([27]), and cytosolic flavoenzymes such as fumarate reductase (Frd) can generate O2^−, H2O2, and hydroxyl radical (^·OH) that damages membrane lipids, DNA, and proteins. ArcA is important for regulating bacterial resistance to ROS under aerobic conditions, and OxyR directly senses H2O2 to induce expression of a slew of genes, including ahpC and gshA, to counter H2O2 accumulation ([28], [29]).

E. coli = assay: Single-cell division time, time-lapse phase-contrast microscopy; assay type: cell-based, Escherichia coli; conditions: 30 nM, first three generations
Method: (§1) To confirm that sublethal levels of cathelicidins affected the growth of Gram-negative bacteria, the division of single cells of E. coli and E. cloacae was monitored. Cells were seeded into microfluidic chambers and grown under continuous flow, and time-lapse phase-contrast microscopy was used to record the cell division time in the presence or absence of B22a.
(§2) Imaging of individual cells was conducted using the CellAsic microfluidic perfusion system (ONIX) with integrated temperature controller and B04A bacterial microfluidic plates (EMD Millipore, Billerica, MA). The CellAsic ONIX FG software (v 5.0.2.0) was used to control flow rate and deliver fresh medium with or without antimicrobial peptide (AMP). The chambers were loaded by perfusion of 50 μl of a 10^6 cells/ml bacterial suspension at 2 lb/in^2 for 15 s to prime the cells followed by 4 lb/in^2 for 15 s to trap the cells. The chamber was then rinsed at 1 lb/in^2 for 30 s followed by 5 lb/in^2 for 5 min. To quickly switch solutions, medium was perfused at 10 lb/in^2 for 10 s, and then flow was reduced to 2 lb/in^2 for the remainder of the imaging.

E. cloacae = assay: as above; assay type: cell-based, Enterobacter cloacae; conditions: 30 nM, first three generations
Method: as §1, §2

Substance: FRKKLKKLFKKLSPVIPLLKLG-NH2 [B22a]
- Log2 fold change, ahpC (UTI89_C0608) (E. coli UTI89): −1.35
- Log2 fold change, ansB (UTI89_C3346) (E. coli UTI89): −3.26
- Log2 fold change, arcA (UTI89_C5174) (E. coli UTI89): −1.55
- Log2 fold change, ardB (UTI89_C2011) (E. coli UTI89): −1.39
- Log2 fold change, arnF (yfbJ) (UTI89_C2541) (E. coli UTI89): 1.44
- Log2 fold change, arrD (UTI89_C1304) (E. coli UTI89): 2.56
- Log2 fold change, asnA (UTI89_C4299) (E. coli UTI89): −1.38
- Log2 fold change, asnS (UTI89_C1002) (E. coli UTI89): −1.19
- Log2 fold change, aspA (UTI89_C4736) (E. coli UTI89): −2.31
- Log2 fold change, ccmH (UTI89_C2472) (E. coli UTI89): −1.19
- Log2 fold change, citB (UTI89_C0624) (E. coli UTI89): −2.71
- Log2 fold change, cspA (UTI89_C4097) (E. coli UTI89): 1.44
- Log2 fold change, cspG (UTI89_C1051) (E. coli UTI89): 1.67
- Log2 fold change, cybC (UTI89_C4840) (E. coli UTI89): −2.73
- Log2 fold change, cyoD (UTI89_C0453) (E. coli UTI89): 1.80
- Log2 fold change, cysM (UTI89_C2754) (E. coli UTI89): −2.60
- Log2 fold change, dapC (UTI89_C3862) (E. coli UTI89): −1.97
- Log2 fold change, dcuA (UTI89_C4735) (E. coli UTI89): −2.63
- Log2 fold change, dgkA (UTI89_C4612) (E. coli UTI89): −1.71
- Log2 fold change, eno (UTI89_C3148) (E. coli UTI89): −2.02
- Log2 fold change, evgS (UTI89_C2702) (E. coli UTI89): 1.30
- Log2 fold change, fabA (UTI89_C1019) (E. coli UTI89): −1.48
- Log2 fold change, fdoG (UTI89_C4481) (E. coli UTI89): 1.13
- Log2 fold change, fimX (UTI89_C0338) (E. coli UTI89): 1.57
- Log2 fold change, frdA (UTI89_C4754) (E. coli UTI89): −1.78
- Log2 fold change, frdB (UTI89_C4753) (E. coli UTI89): −2.97
- Log2 fold change, fusA (UTI89_C3842) (E. coli UTI89): −1.22
- Log2 fold change, gadX (UTI89_C4048) (E. coli UTI89): 1.74
- Log2 fold change, gapA (UTI89_C1975) (E. coli UTI89): −2.34
- Log2 fold change, gmhB (UTI89_C0216) (E. coli UTI89): −2.02
- Log2 fold change, gnd (UTI89_C2302) (E. coli UTI89): −1.41
- Log2 fold change, gshA (UTI89_C3050) (E. coli UTI89): −1.92
- Log2 fold change, gsk (UTI89_C0505) (E. coli UTI89): 1.20
- Log2 fold change, holE (UTI89_C2044) (E. coli UTI89): 2.85
- Log2 fold change, hslJ (UTI89_C1622) (E. coli UTI89): −1.15
- Log2 fold change, manY (UTI89_C2016) (E. coli UTI89): −1.16
- Log2 fold change, marR (UTI89_C1833) (E. coli UTI89): 1.29
- Log2 fold change, mcbR (UTI89_C1669) (E. coli UTI89): 2.96
- Log2 fold change, mdoG (UTI89_C1172) (E. coli UTI89): 1.63
- Log2 fold change, mrcB (UTI89_C0165) (E. coli UTI89): 1.85
- Log2 fold change, mrp (UTI89_C2387) (E. coli UTI89): −1.64
- Log2 fold change, mtgA (UTI89_C3644) (E. coli UTI89): 1.90
- Log2 fold change, napC (UTI89_C2480) (E. coli UTI89): −2.52
- Log2 fold change, narP (UTI89_C2471) (E. coli UTI89): −2.02
- Log2 fold change, ompC (UTI89_C2497) (E. coli UTI89): −1.11
- Log2 fold change, ompT (UTI89_C0566) (E. coli UTI89): 1.11
- Log2 fold change, orf (UTI89_C0124) (E. coli UTI89): 1.89
- Log2 fold change, orf (UTI89_C1095) (E. coli UTI89): 1.47
- Log2 fold change, orf (UTI89_C1152) (E. coli UTI89): 1.40
- Log2 fold change, orf (UTI89_C1286) (E. coli UTI89): 1.09
- Log2 fold change, orf (UTI89_C3928) (E. coli UTI89): 1.10
- Log2 fold change, orf (UTI89_C4380) (E. coli UTI89): −1.48
- Log2 fold change, oxyR (UTI89_C4554) (E. coli UTI89): 1.11
- Log2 fold change, pflB (UTI89_C0974) (E. coli UTI89): −2.71
- Log2 fold change, ptsK (UTI89_C2748) (E. coli UTI89): −1.06
- Log2 fold change, rpmE (UTI89_C4521) (E. coli UTI89): 1.08
- Log2 fold change, rtcA (UTI89_C3920) (E. coli UTI89): −2.90
- Log2 fold change, sdaB (UTI89_C3168) (E. coli UTI89): −3.16
- Log2 fold change, sdaC (UTI89_C3167) (E. coli UTI89): −2.21
- Log2 fold change, secB (UTI89_C4151) (E. coli UTI89): −2.45
- Log2 fold change, secY (UTI89_C3746) (E. coli UTI89): −1.36
- Log2 fold change, serS (UTI89_C0908) (E. coli UTI89): −2.29
- Log2 fold change, torY (UTI89_C2077) (E. coli UTI89): 1.03
- Log2 fold change, tpiA (UTI89_C4503) (E. coli UTI89): −1.16
- Log2 fold change, uspE (UTI89_C1604) (E. coli UTI89): 1.28
- Log2 fold change, wbgM (UTI89_C2303) (E. coli UTI89): 1.29
- Log2 fold change, xdhC (UTI89_C3253) (E. coli UTI89): −2.37
- Log2 fold change, yaaY (UTI89_C0026) (E. coli UTI89): 1.32
- Log2 fold change, yacH (UTI89_C0130) (E. coli UTI89): 1.39
- Log2 fold change, yaiS (UTI89_C2239) (E. coli UTI89): 1.92
- Log2 fold change, ybcS1 (UTI89_C1303) (E. coli UTI89): 2.14
- Log2 fold change, ybfN (UTI89_C0686) (E. coli UTI89): 1.22
- Log2 fold change, ybjD (UTI89_C0880) (E. coli UTI89): 1.31
- Log2 fold change, ycaD (UTI89_C0972) (E. coli UTI89): −1.66
- Log2 fold change, yciL (UTI89_C1537) (E. coli UTI89): −1.27
- Log2 fold change, ydeH (UTI89_C1760) (E. coli UTI89): 4.38
- Log2 fold change, ydiU (UTI89_C1899) (E. coli UTI89): 1.27
- Log2 fold change, yecR (UTI89_C2105) (E. coli UTI89): −2.29
- Log2 fold change, yehE (UTI89_C2386) (E. coli UTI89): −1.09
- Log2 fold change, yfaE (UTI89_C2517) (E. coli UTI89): −2.34
- Log2 fold change, yfbR (UTI89_C2573) (E. coli UTI89): −1.89
- Log2 fold change, yfcD (UTI89_C2583) (E. coli UTI89): −1.88
- Log2 fold change, yfeK (UTI89_C2753) (E. coli UTI89): −1.41
- Log2 fold change, ygdI (UTI89_C3181) (E. coli UTI89): 1.30
- Log2 fold change, ygdI (UTI89_C3182) (E. coli UTI89): 1.31
- Log2 fold change, ygdR (UTI89_C3236) (E. coli UTI89): 1.12
- Log2 fold change, yghU (UTI89_C3411) (E. coli UTI89): −2.15
- Log2 fold change, yhbQ (UTI89_C3582) (E. coli UTI89): −1.70
- Log2 fold change, yhbW (UTI89_C3587) (E. coli UTI89): −1.14
- Log2 fold change, yhcO (UTI89_C3670) (E. coli UTI89): 1.80
- Log2 fold change, yhdL (UTI89_C3736) (E. coli UTI89): 1.09
- Log2 fold change, yjbK (UTI89_C4616) (E. coli UTI89): 1.10
- Log2 fold change, yjcC (UTI89_C4647) (E. coli UTI89): −1.25
- Log2 fold change, yjeH (UTI89_C4739) (E. coli UTI89): −1.27
- Log2 fold change, yjeI (UTI89_C4742) (E. coli UTI89): −1.76
- Log2 fold change, yjgF (ridA) (UTI89_C4848) (E. coli UTI89): 2.24
- Log2 fold change, ykgH (UTI89_C0333) (E. coli UTI89): −2.93
- Log2 fold change, ymdC (UTI89_C1169) (E. coli UTI89): 1.04
- Log2 fold change, ymgA (UTI89_C1348) (E. coli UTI89): 1.77
- Log2 fold change, ynfJ (UTI89_C1779) (E. coli UTI89): −1.82
- Log2 fold change, ynhG (UTI89_C1870) (E. coli UTI89): 1.34
- Log2 fold change, yqgD (UTI89_C3330) (E. coli UTI89): 1.11
- Log2 fold change, yrdA (UTI89_C3724) (E. coli UTI89): 1.02
- Log2 fold change, yrdE (UTI89_C3686) (E. coli UTI89): −2.10
- Cell division time (E. coli): increased twofold
- Cell division time (E. cloacae): increased twofold
